In patent US20060063754A1, “Methods of treating a sleep disorder” (priority 2004, published 2006):
pKi: −log10 of the molar value. Read-outs that look alike come from different tables or passages of the source.

Key:
[1] = biological target: T1, human recombinant M1 muscarinic receptor expressed in CHO cells (Homo sapiens, UniProt P11229); conditions: reference compounds; read-out: Ki of reference compounds in M1 binding assay; cited from earlier work
T1 construct: purchased PerkinElmer, Inc., Wellesley, Mass; host or cells: CHO cells
T1 sequence (P11229 1-460): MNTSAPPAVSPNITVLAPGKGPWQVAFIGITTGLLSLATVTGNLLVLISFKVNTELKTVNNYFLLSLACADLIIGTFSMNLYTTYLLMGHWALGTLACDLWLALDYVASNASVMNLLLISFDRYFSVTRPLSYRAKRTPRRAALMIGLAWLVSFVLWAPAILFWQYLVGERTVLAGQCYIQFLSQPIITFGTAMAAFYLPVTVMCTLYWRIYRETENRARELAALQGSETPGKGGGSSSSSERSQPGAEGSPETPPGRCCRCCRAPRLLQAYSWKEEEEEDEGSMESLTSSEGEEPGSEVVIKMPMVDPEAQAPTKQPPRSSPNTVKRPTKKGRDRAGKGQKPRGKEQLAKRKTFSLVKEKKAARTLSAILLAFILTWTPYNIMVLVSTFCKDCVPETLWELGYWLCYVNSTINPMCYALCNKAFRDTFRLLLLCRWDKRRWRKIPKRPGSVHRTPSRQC

alpha 2 receptor = alpha 2 receptor binding assay; conditions: read-out: Ki Alpha2
Method: (§1) Binding assays were performed using Compound 1 and 2 in competitive binding assays with known standards for the H1 histamine receptor, and the M1, M2, and M3 muscarinic receptors, alpha 1 and alpha 2 receptors, and D1 and D2 receptors.

male Wistar rats = experiment: Sleep-wakefulness monitoring (SCORE-2000, EEG/EMG) in rats; type: in vivo, rat; conditions: oral bolus at CT-18, male Wistar rats
Method: Sleep-wakefulness, locomotor activity and body temperature are monitored in male Wistar rats treated with a test compound initially at a concentration of 10 mg/kg. Higher and lower doses are assayed for select compounds (e.g., as high as 45 mg/kg, and as low as necessary to establish a no-effect dose). Treatments are administered at CT-18, the peak of the activity dominated period (6 hours after lights-off), and produce soporific (sleep-inducing) effects characterized by increased non-REM sleep time, increased sleep continuity, but without evidence of REM sleep inhibition or rebound insomnia.
Sleep-wakefulness, locomotor activity and body temperature were monitored in vivo with certain of the disclosed sleep-inducing agents (e.g., Compounds 1 and 2) and other compounds described herein. Adult, male Wistar rats (250 g at time of surgery, Charles River Laboratories, Wilmington Mass.) were anesthetized (2% isoflourane in medical grade oxygen) and surgically prepared with a cranial implant to permit chronic electro-encephalogram (EEG) and electromyogram (EMG) recording. Body temperature and locomotor activity were monitored via a miniature transmitter (Mini-Mitter, Bend, Oreg.) surgically placed in the abdomen. The cranial implant consisted of stainless steel screws (two frontal (+3.2 AP from bregma, ±2.0 ML) and two occipital (−6.9 AP, ±5.5 ML)) for EEG recording. Two Teflon®-coated stainless steel wires were positioned under the nuchal trapezoid muscles for EMG recording. All leads were soldered to a miniature connector prior to surgery, and gas sterilized in ethylene oxide. The implant assembly was affixed to the skull with dental acrylic. A minimum of three weeks was allowed for surgical recovery.
Each rat was permanently housed in its own individual recording cage located within separate, ventilated compartments of custom-designed stainless steel cabinets. Each cage was enhanced with a filter-top riser and low-torque swivel-commutator. Food and water were available ad libitum. A 24-hr light-dark cycle (12 hours light, 12 hours dark) was maintained throughout the study. Animals were undisturbed for at least 48 hours before and after treatments.
Sleep and wakefulness were determined using “SCORE-2000™” (Hypnion, Worcester, Mass.)—an internet-based sleep-wake and physiological monitoring system. The system monitored amplified EEG (bandpass 1-30 Hz), integrated EMG (bandpass 10-100 Hz), body temperature and non-specific locomotor activity (LMA) via telemetry, and drinking activity, continuously and simultaneously. Arousal states were classified on-line as non-REM (NREM) sleep, REM sleep, wake, or theta-dominated wake every 10 seconds. Total drinking and locomotor activity counts, and body temperature were quantitated and recorded each minute, using EEG feature extraction and pattern-matching algorithms. […] The classification algorithm used individually-taught EEG-arousal-state templates, plus EMG criteria to differentiate REM sleep from theta-dominated wakefulness, plus behavior-dependent contextual rules (e.g., if the animal was drinking, it is awake). Drinking and locomotor activity intensity (LMA) were recorded every 10 seconds, while body temperature was recorded each minute. Locomotor activity was detected by a telemetry receiver (Mini-Mitter) beneath the cage. Telemetry measures (LMA and body temperature) were not part of the scoring algorithm; thus, sleep-scoring and telemetry data were independent measures.
Compounds were administered at CT-18, the peak of the activity-dominated period, sufficient time was allowed to view the time course of the treatment effect before lights-on (6 hours post-treatment). Compounds were suspended in sterile 0.25% or 0.5% methylcellulose (1-2 ml/kg). Treatments were administered orally as a bolus.
A parallel group study design was employed. […]

[2] = biological target: T1, human recombinant M1 muscarinic receptor expressed in CHO cells; experiment: M1 muscarinic receptor binding assay ([3H]-scopolamine, N-methyl chloride)
D2 receptor = D2 receptor (Homo sapiens, UniProt P14416); experiment: Dopamine D2 binding assay
[3] = biological target: Dopamine, D1 (human recombinant) (Homo sapiens, UniProt P21728); experiment: Dopamine D1 binding assay
Method: Dopamine, D1 (human recombinant) binding assay was performed according to published procedures. See, e.g., Jarvie, et al. J. Recept Res., 13(1-4): 573-90 (1993); and Billard, et al. Life Sciences, 35(18): 1885-93 (1984), with modifications

H1 histamine receptor = biological target: T2, H1 histamine receptor (Bos taurus, UniProt P30546); experiment: H1 histamine receptor competitive binding assay ([3H]pyrilamine); parameters: species or system bovine
T2 construct: the receptors were obtained from bovine cerebellar membrane tissue; from tissue; host or cells: bovine cerebellar membranes

[4] = biological target: T3, human recombinant M2 muscarinic receptor expressed in CHO cells (Homo sapiens, UniProt P08172); experiment: M2 muscarinic receptor binding assay
T3 construct: purchased PerkinElmer, Inc., Wellesley, Mass; host or cells: CHO cells
T3 sequence (P08172 1-466): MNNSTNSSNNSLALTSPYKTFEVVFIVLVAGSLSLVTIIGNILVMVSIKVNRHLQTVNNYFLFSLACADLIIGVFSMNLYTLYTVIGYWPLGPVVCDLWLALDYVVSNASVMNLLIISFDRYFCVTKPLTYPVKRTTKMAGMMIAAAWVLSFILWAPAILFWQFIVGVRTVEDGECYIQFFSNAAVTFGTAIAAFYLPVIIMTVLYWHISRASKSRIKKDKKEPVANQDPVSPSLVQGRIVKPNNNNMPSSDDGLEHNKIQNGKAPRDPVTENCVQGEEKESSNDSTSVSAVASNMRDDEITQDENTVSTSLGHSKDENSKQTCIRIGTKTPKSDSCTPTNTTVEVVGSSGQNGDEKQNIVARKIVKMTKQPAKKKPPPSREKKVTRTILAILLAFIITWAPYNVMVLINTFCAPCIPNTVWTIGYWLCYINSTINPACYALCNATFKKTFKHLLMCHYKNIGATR

hERG channel = hERG channel (Homo sapiens, UniProt Q12809); experiment: hERG channel current block, whole cell patch clamp in HEK293 cells; type: cell-based; conditions: HEK293 cells expressing hERG, room temperature
Method: In the hERG assay, hERG channels are expressed in a human embryonic kidney cell line (HEK293) that lacks endogenous IKr. […] (See, Rampe 1997).
In one embodiment of the hERG assay, the positive control (i.e., reference compound) is terfenadine (Sigma, St. Louis Mo.), which has been shown, at a concentration of 60 nM, to block hERG current by approximately 75%. Test compounds are delivered in HEPES-buffered physiological saline (HB-PS)+0.1% dimethyl sulfoxide (DMSO). Each test compound is applied at a concentration of 10 μM to the HEK293 cells expressing hERG (n≧3, where n=the number of cells). Cells are exposed to the test compound for the time necessary to reach steady-state block, but not longer than 10 minutes. The positive control ([…] terfenadine) is applied to two cells (n≧2).
The hERG-exposed cells are then transferred to the recording chamber and superfused with HB-PS solution. The pipette solution for whole cell recordings includes potassium aspartate (130 mM), MgCl2 (5 mM), EGTA (5 mM), ATP (4 mM), and HEPES (10 mM) at a pH adjusted to 7.2 with KOH. Onset and steady state block of hERG current due to the test compound are measured using a pulse pattern with fixed amplitudes (depolarization: +20 mV for 2 seconds; repolarization: −50 mV for 2 seconds), repeated at 10 second intervals, from a holding potential of −80 mV. Peak tail current is measured during the 2 second step to −50 mV. A steady state is maintained for at least 30 seconds before applying the test compound or positive control compound. Peak tail currents are measured until a new steady state is achieved.
The in vitro effects of the disclosed sleep-inducing agents on the hERG (human ether-à-go-go-related gene) channel current (IKr, the rapidly activating, delayed rectifier cardiac potassium current) were determined by ChanTest (Cleveland, Ohio) according to Standard Operating Procedures of ChanTest.
All chemicals used were purchased from Sigma (St. Louis, Mo.) unless otherwise noted and were of ACS reagent grade purity or higher. […]

[5] = biological target: T4, human recombinant M3 muscarinic receptor expressed in CHO cells (Homo sapiens, UniProt P20309); experiment: M3 muscarinic receptor binding assay
T4 construct: purchased PerkinElmer, Inc., Wellesley, Mass; host or cells: CHO cells

alpha 1 receptor = alpha 1 receptor binding assay; conditions: read-out: Ki Alpha1
Method: as §1

Sequence of hERG channel (Q12809 whole entry): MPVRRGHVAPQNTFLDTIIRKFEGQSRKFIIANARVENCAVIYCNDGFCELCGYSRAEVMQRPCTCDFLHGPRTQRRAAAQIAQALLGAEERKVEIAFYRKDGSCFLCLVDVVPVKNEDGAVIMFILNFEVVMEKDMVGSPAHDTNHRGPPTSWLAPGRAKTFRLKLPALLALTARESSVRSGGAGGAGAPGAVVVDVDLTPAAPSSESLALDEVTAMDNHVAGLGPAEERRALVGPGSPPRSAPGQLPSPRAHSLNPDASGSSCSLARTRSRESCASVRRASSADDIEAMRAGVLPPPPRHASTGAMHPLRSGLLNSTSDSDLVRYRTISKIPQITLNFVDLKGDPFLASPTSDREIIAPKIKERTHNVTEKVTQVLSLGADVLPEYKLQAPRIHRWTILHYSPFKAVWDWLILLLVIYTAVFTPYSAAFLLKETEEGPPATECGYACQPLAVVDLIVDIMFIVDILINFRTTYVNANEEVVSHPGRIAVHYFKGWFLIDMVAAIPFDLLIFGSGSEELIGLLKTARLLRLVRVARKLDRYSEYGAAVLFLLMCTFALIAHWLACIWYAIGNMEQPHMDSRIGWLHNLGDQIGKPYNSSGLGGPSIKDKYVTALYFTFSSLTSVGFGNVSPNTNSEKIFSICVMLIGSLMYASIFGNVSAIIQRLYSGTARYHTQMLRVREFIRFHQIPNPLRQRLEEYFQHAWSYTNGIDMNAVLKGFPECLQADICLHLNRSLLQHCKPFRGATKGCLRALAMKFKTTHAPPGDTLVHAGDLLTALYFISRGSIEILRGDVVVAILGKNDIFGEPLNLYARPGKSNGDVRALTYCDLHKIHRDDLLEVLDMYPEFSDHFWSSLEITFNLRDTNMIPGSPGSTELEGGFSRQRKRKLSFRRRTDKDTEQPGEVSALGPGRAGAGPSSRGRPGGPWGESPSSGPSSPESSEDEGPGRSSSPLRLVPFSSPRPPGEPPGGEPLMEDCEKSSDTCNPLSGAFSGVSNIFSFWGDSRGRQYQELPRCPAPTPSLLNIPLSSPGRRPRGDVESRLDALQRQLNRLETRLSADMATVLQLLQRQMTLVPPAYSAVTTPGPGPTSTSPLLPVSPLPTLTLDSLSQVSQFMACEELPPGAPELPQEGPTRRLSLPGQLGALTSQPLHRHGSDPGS
Sequence of Dopamine, D1 (human recombinant) (P21728 whole entry): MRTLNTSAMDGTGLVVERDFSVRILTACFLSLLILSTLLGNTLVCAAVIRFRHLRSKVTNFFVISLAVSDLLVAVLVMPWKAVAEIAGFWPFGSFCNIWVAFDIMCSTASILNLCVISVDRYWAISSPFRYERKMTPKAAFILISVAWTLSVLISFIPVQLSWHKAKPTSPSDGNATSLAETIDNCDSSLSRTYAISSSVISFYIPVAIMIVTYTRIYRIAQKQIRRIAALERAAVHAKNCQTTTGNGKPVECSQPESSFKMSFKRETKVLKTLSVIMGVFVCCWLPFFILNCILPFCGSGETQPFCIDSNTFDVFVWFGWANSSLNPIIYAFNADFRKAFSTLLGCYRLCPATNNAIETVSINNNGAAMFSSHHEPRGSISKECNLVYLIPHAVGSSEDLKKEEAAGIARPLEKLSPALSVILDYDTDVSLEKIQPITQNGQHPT
T4 sequence (P20309 whole entry): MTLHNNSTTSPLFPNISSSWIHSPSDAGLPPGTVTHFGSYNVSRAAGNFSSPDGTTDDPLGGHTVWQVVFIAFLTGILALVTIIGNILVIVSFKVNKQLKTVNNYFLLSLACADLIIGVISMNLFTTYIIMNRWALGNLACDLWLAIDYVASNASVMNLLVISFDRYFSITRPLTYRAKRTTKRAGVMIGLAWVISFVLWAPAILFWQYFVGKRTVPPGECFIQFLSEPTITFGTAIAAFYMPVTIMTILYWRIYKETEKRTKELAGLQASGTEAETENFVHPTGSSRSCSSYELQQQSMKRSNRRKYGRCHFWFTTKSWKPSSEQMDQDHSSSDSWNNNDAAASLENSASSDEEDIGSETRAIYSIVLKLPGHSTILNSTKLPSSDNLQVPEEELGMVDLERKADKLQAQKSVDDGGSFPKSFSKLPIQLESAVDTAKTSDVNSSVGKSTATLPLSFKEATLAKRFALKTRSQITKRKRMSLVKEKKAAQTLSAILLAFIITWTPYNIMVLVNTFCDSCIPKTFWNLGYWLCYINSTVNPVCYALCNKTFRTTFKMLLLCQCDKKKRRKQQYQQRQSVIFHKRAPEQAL
Sequence of D2 receptor (P14416 whole entry): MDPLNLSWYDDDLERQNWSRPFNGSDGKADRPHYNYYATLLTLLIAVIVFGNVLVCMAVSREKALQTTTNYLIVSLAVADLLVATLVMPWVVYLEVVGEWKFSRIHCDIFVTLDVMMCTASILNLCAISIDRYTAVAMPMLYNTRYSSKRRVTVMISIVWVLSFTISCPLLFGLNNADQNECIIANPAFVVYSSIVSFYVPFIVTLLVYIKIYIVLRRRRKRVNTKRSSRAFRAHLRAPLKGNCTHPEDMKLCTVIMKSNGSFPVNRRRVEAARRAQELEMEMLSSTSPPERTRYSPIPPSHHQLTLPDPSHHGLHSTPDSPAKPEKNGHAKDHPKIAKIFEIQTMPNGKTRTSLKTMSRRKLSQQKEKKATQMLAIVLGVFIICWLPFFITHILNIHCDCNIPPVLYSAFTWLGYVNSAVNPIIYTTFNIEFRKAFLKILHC
T2 sequence (P30546 whole entry): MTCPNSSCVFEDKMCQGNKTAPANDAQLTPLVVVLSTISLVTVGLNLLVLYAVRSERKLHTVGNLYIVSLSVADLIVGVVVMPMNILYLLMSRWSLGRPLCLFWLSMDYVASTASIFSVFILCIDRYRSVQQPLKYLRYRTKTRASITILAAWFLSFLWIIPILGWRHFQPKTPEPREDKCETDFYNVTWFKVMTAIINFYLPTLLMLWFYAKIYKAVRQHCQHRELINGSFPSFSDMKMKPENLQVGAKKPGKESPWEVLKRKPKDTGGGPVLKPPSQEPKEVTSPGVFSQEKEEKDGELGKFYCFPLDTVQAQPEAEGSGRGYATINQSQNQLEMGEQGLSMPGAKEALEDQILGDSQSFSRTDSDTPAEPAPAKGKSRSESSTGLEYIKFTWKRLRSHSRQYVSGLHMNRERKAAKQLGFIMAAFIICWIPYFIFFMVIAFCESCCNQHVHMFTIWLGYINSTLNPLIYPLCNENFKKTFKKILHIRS

pKi (alpha 2 receptor)	pKi [2]	pKi (D2 receptor)	pKi [3]	pKi (H1 histamine receptor)	pKi [4]	pKi [5]	pKi (alpha 1 receptor)	SMILES	pKi [1]	LUSB (longest uninterrupted sleep bout) (male Wistar rats; dose 10 mg/kg)	NREM (male Wistar rats; dose 10 mg/kg)	hERG at 10 micromolar (% blocking of the hERG channel) (hERG channel)	LUSB (longest uninterrupted sleep bout) (male Wistar rats; dose 3 mg/kg)
								C[N+]1(C)CCC(OC(=O)C(c2ccccc2)c2ccccc2)CC1 [4-DAMP methiodide]	9.57				
< 5.00	< 5.00	< 5.00	5.95	7.39	< 5.00	< 5.00	< 5.00	O=C(O)CCN1CCN(C2=Nc3ccccc3Oc3ccccc32)CC1 [Compound 1]		13.2 ± 3.3 min	22 ± 6 min	0.70%	
< 5.00	< 5.00	< 5.00	5.20	7.27	< 5.00	< 5.00	5.49	O=C(O)CCCN1CCN(C2=Nc3ccccc3Oc3ccccc32)CC1 [Compound 2]		7.2 ± 2.0 min	38 ± 6 min	2.60%	3.8 ± 2.2 min
								O=C(O)CCN1CCN(C2=Nc3ccccc3Sc3ccccc32)CC1 [Compound 3]		5 ± 2.0 min	43 ± 6 min	0.80%	6 ± 1.9 min
